Assay results: US8163736B2, “Cytotoxic agents comprising new tomaymycin derivatives” (sanofi-aventis, priority 2006, dated 2012)

Tests used:
Format in all cases: cell-based
[1] = test system: MCF7; assay: In vitro potency of tomaymycin derivatives, WST-8 surviving fraction, MCF7; conditions: Homo sapiens, 96 h; MCF7 cells, incubated 4 days at 37° C., WST-8 read at 450 nm
Procedure: (§1) Samples of free tomaymycin derivative or tomaymycin derivative conjugate are added to a 96-well flat bottomed tissue culture plate and titrated using serial dilutions ranging from 1×10^−12 M to 3×10^−7 M. Antigen positive tumor cells or antigen negative tumor cells are added to the wells in such a way that there are triplicate samples for each drug concentration for each cell line. The plates are incubated at 37° C. in an atmosphere of 5% CO2 for 4 days.
(§2) At the end of the incubation period, 20 μl of the tetrazolium reagent WST-8 (2-(2-methoxy-nitrophenyl)-3-(4-nitrophenyl)-5-(2,4-disulfophenyl)-2-tetrazolium, monosodium salt) is added to each well, and the plates are returned to the incubator for 2 hours. The absorbance in each well of the plates is then measured using the Molecular Devices plate reader at 450 nm. Surviving fraction of cells at each concentration of tomaymycin derivative or conjugate are plotted.

[2] = test system: KB; assay: In vitro potency of tomaymycin derivatives, WST-8 surviving fraction, KB; conditions: Homo sapiens, 96 h; KB cells, incubated 4 days at 37° C., WST-8 read at 450 nm
Procedure: as §1, §2

[3] = test system: A549; assay: In vitro potency of tomaymycin derivatives, WST-8 surviving fraction, A549; conditions: Homo sapiens, 96 h; A549 cells, incubated 4 days at 37° C., WST-8 read at 450 nm
Procedure: as §1, §2

SMILES | IC50 [1] [nM] | IC50 [2] [nM] | IC50 [3] [nM]
C/C=C1\C[C@H]2C=Nc3cc(OCc4cccc(COc5cc6c(cc5OC)C(=O)N5C/C(=C/C)C[C@H]5C=N6)c4)c(OC)cc3C(=O)N2C1 [Example 1, 8,8′-[1,3-benzenediylbis(methylenoxy)]-bis[(S)-2-eth-(E)-ylidene-7-methoxy-1,2,3,11a-tetrahydro-5H-pyrrolo[2,1-c][1,4]benzodiazepin-5-one]] | < 0.001 | < 0.001 | < 0.001
C/C=C1\C[C@H]2C=Nc3cc(OCc4cc(COc5cc6c(cc5OC)C(=O)N5C/C(=C/C)C[C@H]5C=N6)cc(OC)c4)c(OC)cc3C(=O)N2C1 [Example 2, 8,8′-[5-methoxy-1,3-benzenediylbis(methylenoxy)]-bis[(S)-2-eth-(E)-ylidene-7-methoxy-1,2,3,11a-tetrahydro-5H-pyrrolo[2,1-c][1,4]benzodiazepin-5-one]] | < 0.001 | < 0.001 | < 0.001
C/C=C1\C[C@H]2C=Nc3cc(OCCC(C)CCOc4cc5c(cc4OC)C(=O)N4C/C(=C/C)C[C@H]4C=N5)c(OC)cc3C(=O)N2C1 [Example 5, 8,8′-[3-methyl-1,5-pentanediylbis(oxy)]-bis[(S)-2-eth-(E)-ylidene-7-methoxy-1,2,3,11a-tetrahydro-5H-pyrrolo[2,1-c][1,4]benzodiazepin-5-one]] | 0.1 | 0.1 | 0.07
